# Test results from patent US11331283B2, “Pharmaceutical compositions comprising cinacalcet hydrochloride and one or more binders” (UNICHEM LABORATORIES LTD, priority 2017, dated 2022).
# Experiment: Particle size distribution of micronized cinacalcet hydrochloride by Malvern Mastersizer
# Assay type: physicochemical
# Conditions: particle size after jet milling
# Experimental: Micronization of cinacalcet hydrochloride was carried out by Jet Milling. Particle size of micronized cinacalcet hydrochloride was measured with Malvern Mastersizer.
D10,D50,D90,Structure (SMILES)
4.06 μm,9.58 μm,18.8 μm,"C[C@@H](NCCCc1cccc(C(F)(F)F)c1)c1cccc2ccccc12.Cl [Batch No 60002, N-[1-(R)-(−)-(1-naphthyl)ethyl]-3-[3(trifluoromethyl)phenyl]-1-aminopropane hydrochloride]"
2.66 μm,6.55 μm,13.4 μm,"C[C@@H](NCCCc1cccc(C(F)(F)F)c1)c1cccc2ccccc12.Cl [Batch No 70001, N-[1-(R)-(−)-(1-naphthyl)ethyl]-3-[3(trifluoromethyl)phenyl]-1-aminopropane hydrochloride]"
2.35 μm,6.81 μm,15.4 μm,"C[C@@H](NCCCc1cccc(C(F)(F)F)c1)c1cccc2ccccc12.Cl [Batch No 70002, N-[1-(R)-(−)-(1-naphthyl)ethyl]-3-[3(trifluoromethyl)phenyl]-1-aminopropane hydrochloride]"
≤ 5 μm,≤ 10 μm,≤ 20 μm,"C[C@@H](NCCCc1cccc(C(F)(F)F)c1)c1cccc2ccccc12.Cl [Micronized cinacalcet hydrochloride, N-[1-(R)-(−)-(1-naphthyl)ethyl]-3-[3(trifluoromethyl)phenyl]-1-aminopropane hydrochloride]"
